Test results taken from patent publication US20040103451A1, “Abscisic acid 8'-and 7'-hydroxylase genes and related sequences from plants” (priority 2003, published 2004).

Columns and labels:
[1] = test system: CYP72A7; assay: biotransformation of (+)-ABA by yeast expressing CYP72A7, LC/MS/MS of culture media; type: cell-based, Arabidopsis thaliana
Protocol: FIG. 6. Heterologous expression of an Arabidopsis P450 ABA 7′-hydroxylase activity in yeast. The CYP72A7 cDNA from Arabidopsis thaliana was inserted into the pYeDP60 vector, transformed into the WAT11 yeast strain (but not the WAT21 yeast strain) and analyzed for the ability to metabolize (+)-ABA. The biotransformation of (+)-ABA to 7′-hydroxyABA was assessed by High Performance Liquid Chromatography—Mass Spectrometry. (HPLC/MS/MS) 7′-hydroxyABA was excreted into the media. Measured activity was limited by access of enzyme to the substrate (ABA).
For yeast expression, the cDNAs were transferred into the expression vector pYeDP60 (Pompon D., et al., 1996, Method Enzymol 272: 51-64), and purified recombinant plasmid was subsequently transformed into WAT 11 and WAT 21 yeast strains over-expressing the Arabidopsis cytochrome P450 reductases, CTR1 and CTR2, respectively (Pompon et al., ibid). […]
For expression analysis the cultures were grown for two days on SC minus URA agar plates at 30° C. […] One to 10 mls of the sample was loaded onto an Oasis HLB column (Waters) to purify ABA and ABA-metabolites and the resulting eluant was analyzed by LC/MS/MS.

[2] = test system: ABA 8′-hydroxylase; details: cited from earlier work; for inhibition of induction of ABA 8′-hydroxylase: corn suspension cells
[3] = test system: pJK6-29 mRNA; type: cell-based, corn
Protocol: Total RNA isolated from non-ABA-induced and ABA-induced (9 hr at […] (+)-ABA) BMS corn suspension was probed with radiolabeled pJK6-29. […] Further Northern blot analysis was carried out. In this experiment, the time course of gene expression was compared with the appearance of ABA 8'-hydroxylase activity. ABA 8'-hydroxylase activity was determined by in vitro assay (see Krochko J. E., et al., 1998, Plant Physiol 118: 849-860) with isolated microsomes isolated from BMS corn suspension cells at defined periods after the addition of 200 μM (+)-ABA. Enzyme activity was assayed at 0 (control), 3, 6, 9, 12, 16, 20.5, 25.5 and 28.5 hours after the addition of (+)-ABA. Total RNA was extracted from duplicate tissue samples and expression of the P450 clone, pJK6-29, was determined by Northern blot analysis. The time-course of mRNA induction for pJK6-29 is consistent with the appearance of ABA 8'-hydroxylase activity (FIG. 5).

[4] = test system: ABA 8′-hydroxylase; details: microsomal enzyme, BMS corn suspension cells; cited from earlier work

Row | Compound | inhibition of ABA 8′-hydroxylase [4] | inhibition of induction of ABA 8′-hydroxylase [2] | also measured
1 | CC1=CC(=O)CC(C)(C)[C@@]1(O)/C=C/C(C)=C\C(=O)O [(+)-ABA, S-(+)-abscisic acid] |  |  | ABA hydroxylase activity ([1]; WAT21 yeast strain): did not support any ABA hydroxylase activity; ABA 7′-hydroxylase activity (conversion to 7′-hydroxyABA) ([1]; pYeDP60.Ath30-2 in WAT11 yeast strain, (+)-ABA 20 μM to 50 μM, 24 hours): ABA 7′-hydroxylase activity was demonstrated; time of peak ABA 8′-hydroxylase activity after addition of (+)-ABA ([2]; BMS corn suspension culture medium): 16 h; induction of ABA 8′-hydroxylase ([2]; maize BMS suspension cultured cells): induced; regulation of pJK6-29 P450 mRNA expression [3]: upregulated
2 | [C-]#[O+] [CO] | inhibited |  | 
3 | Nc1ncnc2c1ncn2[C@@H]1O[C@H](CO)C[C@H]1O [cordecypin] |  | inhibited | 
4 | C[C@@H]1C[C@@H]([C@H](O)CC2CC(=O)NC(=O)C2)C(=O)[C@@H](C)C1 [cycloheximide] |  | inhibited | 
5 | Clc1ccc(N2N=N[C@@H]3[C@@H]4C[C@@H]([C@H]5N=N[C@@H]45)[C@@H]32)cc1 [tetcyclacis] | inhibited |  | 
6 | oxidized cytochrome c: inhibitor of ABA 8′-hydroxylase | inhibited |  | 
